# Laboratory results published in patent publication EP4603105A1, “PHARMACEUTICAL COMPOSITION CONTAINING CYCLIC COMPOUND HAVING SELECTIVE KRAS INHIBITORY EFFECT AGAINST HRAS AND NRAS” (CHUGAI SEIYAKU KABUSHIKI KAISHA, priority 2022, dated 2024).
# pIC50, pKd: −log10 of the molar value. Where two headings read alike, the source gives them in different places.
# Key:
# [1] = test system: human lung cancer strain NCI-H441; test: NCI-H441 cell proliferation inhibitory activity (CellTiter-Glo, 4 days); type: cell-based; conditions: read-out: NCl-H441 IC50
# Experimental: A test compound was dispensed into a U-bottom 384-well plate as 40 nL serially diluted dimethyl sulfoxide solutions using a liquid handler Echo (LABCYTE). […] This cell suspension was dispensed in an amount of 40 µL per well into a plate containing the test compound, and cultured at 37°C in a 5% carbon dioxide gas incubator. Four days later, 20 µL of CellTiter-Glo (registered trademark) (Promega) was added to each well and […] was measured. […]
# HRAS wild-type protein = HRAS wild-type protein (Homo sapiens, UniProt P01112); test: Binding to HRAS by surface plasmon resonance (SPR), KD and KD ratio to KRAS; conditions: ratio of the KD value with respect to HRAS wild-type protein to the KD value with respect to KRAS
# Method in brief: (§1)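 Measured at 30°C: SPR with GDP-loaded, E. coli-expressed biotin-Avi RAS captured (~100–300 RU), ascending 75 s compound injections, HBS pH 7.4 with GDP, MgCl2, 4% DMSO. KD from 1:1 fit.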
# [2] = test system: human lung cancer strain NCI-H441; type: cell-based
# Method in brief: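 Signal came from […] measured per well once the reagent was added. Beforehand, cells were cultured at 37°C and 5% carbon dioxide on a compound series serially diluted in dimethyl sulfoxide.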
# [3] = target: GDP-bound NRAS wild-type protein (Homo sapiens, UniProt P01111); test: Binding to NRAS by surface plasmon resonance (SPR), KD and KD ratio to KRAS; conditions: ratio of the KD value with respect to GDP-bound NRAS wild-type protein to the KD value with respect to KRAS
# Method in brief: as §1
# [4] = target: GDP-bound KRAS wild-type protein (Homo sapiens, UniProt P01116); test: Binding to KRAS by surface plasmon resonance (SPR), dissociation constant KD; conditions: Single Cycle Kinetics, 1:1 binding model
# Method in brief: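 Affinity is measured by surface plasmon resonance at 30°C against captured, GDP-loaded RAS carrying a biotinylated Avi tag. Compounds are titrated by single-cycle kinetics, and KD comes from a 1:1 fit.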
# [5] = 50% proliferation inhibitory concentration, four days
# Sequence of GDP-bound KRAS wild-type protein (P01116 1-188 isoform P01116-2): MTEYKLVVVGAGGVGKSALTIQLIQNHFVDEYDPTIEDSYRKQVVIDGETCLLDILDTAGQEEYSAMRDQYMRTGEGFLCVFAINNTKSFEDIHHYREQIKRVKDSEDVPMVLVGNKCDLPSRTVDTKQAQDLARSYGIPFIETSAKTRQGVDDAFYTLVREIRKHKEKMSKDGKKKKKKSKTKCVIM
# Sequence of HRAS wild-type protein (P01112 whole entry): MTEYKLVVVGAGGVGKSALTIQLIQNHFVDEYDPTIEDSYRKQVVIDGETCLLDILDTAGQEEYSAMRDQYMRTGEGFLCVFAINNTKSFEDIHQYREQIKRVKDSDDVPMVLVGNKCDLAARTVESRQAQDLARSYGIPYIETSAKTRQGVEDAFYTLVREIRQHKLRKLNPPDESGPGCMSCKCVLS
# Sequence of GDP-bound NRAS wild-type protein (P01111 whole entry): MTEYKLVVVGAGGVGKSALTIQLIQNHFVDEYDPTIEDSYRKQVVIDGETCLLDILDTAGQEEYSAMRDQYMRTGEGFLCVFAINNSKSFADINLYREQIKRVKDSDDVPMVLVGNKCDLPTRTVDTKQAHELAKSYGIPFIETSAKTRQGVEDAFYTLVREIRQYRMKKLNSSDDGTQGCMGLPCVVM
smiles,measurement,setting,value
CCC[C@H]1C(=O)N[C@@H]([C@@H](C)CC)C(=O)N(C)CC(=O)N(C)[C@H]2C/C=C\CCN(C2=O)[C@@H](CC2CCC(F)(F)CC2)C(=O)N(C)CC(=O)N[C@@H](CCc2cc(F)c(C(F)(F)F)c(F)c2)C(=O)N2C[C@H](OCC)C[C@H]2C(=O)NC2(CCC2)C(=O)N(C)[C@@H](C2CCCC2)C(=O)N(C)[C@H](C(=O)N(C)C)CC(=O)N1C [PP1450],pIC50,[1]; [5],7.30
CCO[C@@H]1C[C@H]2C(=O)NC3(CCC3)C(=O)N(C)[C@@H](C3CCCC3)C(=O)N(C)[C@H](C(=O)N3CCCC3)CC(=O)N(C)[C@@H](CC3CCC3)C(=O)N[C@@H]([C@@H](C)CC)C(=O)N(C)CC(=O)N(C)[C@H]3C/C=C\CCN(C3=O)[C@@H](Cc3ccc(C(F)(F)F)cc3)C(=O)N(C)CC(=O)N[C@@H](CCc3cc(F)c(C(F)(F)F)c(F)c3)C(=O)N2C1 [PP1423],pIC50,[1]; [5],8.36
CCO[C@@H]1C[C@H]2C(=O)NC3(CCC3)C(=O)N(C)[C@@H](C3CCCC3)C(=O)N(C)[C@H](C(=O)N(C)C)CC(=O)N(C)[C@@H](CC3CCCC3)C(=O)N[C@@H]([C@@H](C)CC)C(=O)N(C)CC(=O)N(C)[C@H]3C/C=C\CCN(C3=O)[C@@H](CC3CCCCC3)C(=O)N(C)CC(=O)N[C@@H](CCc3cc(F)c(C(F)(F)F)c(F)c3)C(=O)N2C1 [PP1472],pIC50,[1]; [5],7.43
CCO[C@@H]1C[C@H]2C(=O)NC3(CC(C)(C)C3)C(=O)N(C)[C@@H](C3CCCC3)C(=O)N(C)[C@H](C(=O)N(C)CC)CC(=O)N(C)[C@@H]([C@H](C)OC)C(=O)N[C@@H]([C@@H](C)CC)C(=O)N(C)CC(=O)N(C)[C@H]3C/C=C\CCN(C3=O)[C@@H](Cc3ccc(C)cc3)C(=O)N(C)CC(=O)N[C@@H](CCc3ccc(C(F)(F)F)c(OC)c3)C(=O)N2C1 [PP3225],pIC50,"[1]; NCI-H441 cells, 4 days",7.92
CC[C@H](C)[C@@H]1NC(=O)[C@H](CC)N(C)C(=O)C[C@@H](C(=O)N(C)C)N(C)C(=O)[C@H](C2CCCC2)N(C)C(=O)C2(CCC2)NC(=O)[C@@H]2C[C@@H](C(F)(F)F)CN2C(=O)[C@H](CCc2cc(F)c(C(F)(F)F)c(F)c2)NC(=O)CN(C)C(=O)[C@H](CC2CCC(F)(F)CC2)N2CC/C=C\C[C@@H](C2=O)N(C)C(=O)CN(C)C1=O [PP1451],pIC50,[1]; [5],7.21
CCO[C@@H]1C[C@H]2C(=O)NC3(CC(C)(C)C3)C(=O)N(C)[C@@H](C3CCCC3)C(=O)N(C)[C@H](C(=O)N(C)CC)CC(=O)N(C)[C@@H]([C@H](C)OC)C(=O)N[C@@H]([C@@H](C)CC)C(=O)N(C)CC(=O)N(C)[C@H]3C/C=C\CCN(C3=O)[C@@H](Cc3ccc(C(F)(F)F)cc3)C(=O)N(C)CC(=O)N[C@@H](CCc3ccc(C(F)(F)F)c(OC)c3)C(=O)N2C1 [PP3216],pIC50,"[1]; NCI-H441 cells, 4 days",7.66
CCO[C@@H]1C[C@H]2C(=O)NC3(COC3)C(=O)N(C)[C@@H](C3CCCC3)C(=O)N(C)[C@H](C(=O)N(C)C)CC(=O)N(C)[C@@H](CC)C(=O)N[C@@H]([C@@H](C)CC)C(=O)N(C)CC(=O)N(C)[C@H]3C/C=C\CCN(C3=O)[C@@H](Cc3ccc(C(F)(F)F)cc3)C(=O)N(C)CC(=O)N[C@@H](CCc3cc(F)c(C(F)(F)F)c(F)c3)C(=O)N2C1 [PP1278],pIC50,[1]; [5],7.34
CC[C@H](C)[C@@H]1NC(=O)[C@H](CC)N(C)C(=O)C[C@@H](C(=O)N(C)C)N(C)C(=O)[C@H](C2CCCC2)N(C)C(=O)C2(CCC2)NC(=O)[C@@H]2CCN2C(=O)[C@H](CCc2cc(F)c(C(F)(F)F)c(F)c2)NC(=O)CN(C)C(=O)[C@H](Cc2ccc(C(F)(F)F)cc2)N2CCCCC[C@@H](C2=O)N(C)C(=O)CN(C)C1=O [PP0654],HRAS /KRAS,HRAS wild-type protein,B (a compound having 3 or more and less than 10 is denoted as B)
same,pIC50,[2],6.16
same,NRAS /KRAS,[3],B (a compound having 3 or more and less than 10 is denoted as B)
same,pKd,[4],8.70
